Experimental findings from ChEMBL document CHEMBL4823291, “Discovery of 5,6,7,8-tetrahydropyrido[3,4-d]pyrimidine derivatives as novel selective Axl inhibitors” (Bioorg Med Chem Lett, 2021) are described below.

Structures are written as SMILES.

In assay [1] the target is T1, Tyrosine-protein kinase Mer (Mus musculus, UniProt Q60805).
T1 sequence (Q60805 whole entry): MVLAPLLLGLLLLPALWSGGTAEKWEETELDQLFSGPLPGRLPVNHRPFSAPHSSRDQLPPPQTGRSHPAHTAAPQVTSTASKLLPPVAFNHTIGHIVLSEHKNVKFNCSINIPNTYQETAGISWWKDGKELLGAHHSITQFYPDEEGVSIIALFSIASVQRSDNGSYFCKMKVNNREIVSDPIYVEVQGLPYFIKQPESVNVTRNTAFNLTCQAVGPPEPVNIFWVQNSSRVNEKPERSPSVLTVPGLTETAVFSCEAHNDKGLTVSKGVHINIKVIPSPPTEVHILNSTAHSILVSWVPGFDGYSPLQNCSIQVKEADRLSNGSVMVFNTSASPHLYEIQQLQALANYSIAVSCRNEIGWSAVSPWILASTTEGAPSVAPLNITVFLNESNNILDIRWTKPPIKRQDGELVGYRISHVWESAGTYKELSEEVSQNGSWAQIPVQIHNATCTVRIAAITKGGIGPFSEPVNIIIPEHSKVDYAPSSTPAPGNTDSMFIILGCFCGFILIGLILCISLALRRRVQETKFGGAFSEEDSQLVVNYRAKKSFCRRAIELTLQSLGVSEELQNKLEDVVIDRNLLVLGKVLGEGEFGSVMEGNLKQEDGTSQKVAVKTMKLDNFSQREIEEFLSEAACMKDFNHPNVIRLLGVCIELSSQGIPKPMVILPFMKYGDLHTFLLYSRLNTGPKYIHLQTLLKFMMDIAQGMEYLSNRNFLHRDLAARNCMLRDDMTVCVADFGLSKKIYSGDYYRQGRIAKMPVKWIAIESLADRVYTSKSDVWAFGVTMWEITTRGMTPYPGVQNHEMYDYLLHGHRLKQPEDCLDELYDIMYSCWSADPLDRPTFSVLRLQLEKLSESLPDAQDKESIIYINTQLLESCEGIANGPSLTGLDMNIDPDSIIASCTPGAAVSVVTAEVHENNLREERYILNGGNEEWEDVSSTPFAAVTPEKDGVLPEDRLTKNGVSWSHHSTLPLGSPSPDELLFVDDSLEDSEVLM
Nature of the assay: Inhibition of Mer in mouse BaF3 cells. The assay is classed as cell-based.

The target of assay [2] is T2, Tyrosine-protein kinase receptor UFO (Homo sapiens, UniProt P30530).
T2 sequence (P30530 whole entry): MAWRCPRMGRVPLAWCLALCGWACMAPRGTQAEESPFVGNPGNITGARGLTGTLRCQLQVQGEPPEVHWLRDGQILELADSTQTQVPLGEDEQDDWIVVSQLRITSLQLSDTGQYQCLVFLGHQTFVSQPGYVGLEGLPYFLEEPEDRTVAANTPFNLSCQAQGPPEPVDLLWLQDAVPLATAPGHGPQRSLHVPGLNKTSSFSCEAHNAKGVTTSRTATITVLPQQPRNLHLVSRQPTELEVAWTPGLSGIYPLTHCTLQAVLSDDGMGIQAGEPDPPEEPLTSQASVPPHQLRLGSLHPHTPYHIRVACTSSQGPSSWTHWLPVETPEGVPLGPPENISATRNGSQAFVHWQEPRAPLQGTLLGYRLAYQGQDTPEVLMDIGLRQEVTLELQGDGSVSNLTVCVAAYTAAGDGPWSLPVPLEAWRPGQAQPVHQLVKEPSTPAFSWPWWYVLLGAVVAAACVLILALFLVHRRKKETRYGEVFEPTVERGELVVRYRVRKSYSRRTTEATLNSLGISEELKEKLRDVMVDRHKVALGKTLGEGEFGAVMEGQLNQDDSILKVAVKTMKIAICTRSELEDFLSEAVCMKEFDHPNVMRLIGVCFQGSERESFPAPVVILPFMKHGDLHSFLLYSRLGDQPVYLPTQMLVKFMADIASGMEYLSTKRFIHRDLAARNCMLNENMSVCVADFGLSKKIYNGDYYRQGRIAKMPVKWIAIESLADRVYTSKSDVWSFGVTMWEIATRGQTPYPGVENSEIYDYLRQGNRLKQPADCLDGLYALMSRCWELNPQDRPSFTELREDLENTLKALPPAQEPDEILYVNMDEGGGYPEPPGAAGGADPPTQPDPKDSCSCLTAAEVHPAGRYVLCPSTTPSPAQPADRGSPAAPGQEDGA
The experiment in a line: Inhibition of Axl (unknown origin) by cell free assay.

For assay [3], the target named is T3, Tyrosine-protein kinase receptor UFO (Mus musculus, UniProt Q00993).
T3 sequence (Q00993 whole entry): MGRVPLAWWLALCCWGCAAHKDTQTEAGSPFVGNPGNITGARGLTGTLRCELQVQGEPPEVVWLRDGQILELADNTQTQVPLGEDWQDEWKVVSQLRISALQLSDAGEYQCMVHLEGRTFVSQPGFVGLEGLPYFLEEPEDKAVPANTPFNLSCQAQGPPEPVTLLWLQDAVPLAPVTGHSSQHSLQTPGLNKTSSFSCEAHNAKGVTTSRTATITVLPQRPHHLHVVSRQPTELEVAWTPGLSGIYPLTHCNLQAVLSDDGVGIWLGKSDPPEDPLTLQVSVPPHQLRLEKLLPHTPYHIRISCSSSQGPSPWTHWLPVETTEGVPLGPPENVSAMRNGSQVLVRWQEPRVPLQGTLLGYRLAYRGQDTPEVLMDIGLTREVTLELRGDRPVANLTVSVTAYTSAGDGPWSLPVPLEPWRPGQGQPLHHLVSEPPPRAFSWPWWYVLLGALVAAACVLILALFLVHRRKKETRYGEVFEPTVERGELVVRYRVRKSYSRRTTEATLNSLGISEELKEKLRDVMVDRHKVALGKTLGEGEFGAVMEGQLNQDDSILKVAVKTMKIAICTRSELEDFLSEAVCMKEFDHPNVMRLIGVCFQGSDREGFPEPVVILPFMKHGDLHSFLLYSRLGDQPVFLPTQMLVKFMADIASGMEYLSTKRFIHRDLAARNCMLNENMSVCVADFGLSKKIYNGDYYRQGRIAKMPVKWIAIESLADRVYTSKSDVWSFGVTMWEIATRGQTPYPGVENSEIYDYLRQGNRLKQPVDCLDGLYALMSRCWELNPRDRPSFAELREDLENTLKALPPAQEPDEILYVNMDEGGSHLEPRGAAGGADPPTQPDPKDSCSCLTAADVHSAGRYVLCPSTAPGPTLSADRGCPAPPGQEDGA
Nature of the assay: Inhibition of Axl in mouse BaF3 cells. The assay is classed as cell-based.

The next assay is filed under the species Homo sapiens. The experiment in a line: Ratio of IC50 for Mer (unknown origin) to IC50 for Axl (unknown origin).
Assay [4] addresses T4, Tyrosine-protein kinase Mer (Homo sapiens, UniProt Q12866).
T4 sequence (Q12866 whole entry): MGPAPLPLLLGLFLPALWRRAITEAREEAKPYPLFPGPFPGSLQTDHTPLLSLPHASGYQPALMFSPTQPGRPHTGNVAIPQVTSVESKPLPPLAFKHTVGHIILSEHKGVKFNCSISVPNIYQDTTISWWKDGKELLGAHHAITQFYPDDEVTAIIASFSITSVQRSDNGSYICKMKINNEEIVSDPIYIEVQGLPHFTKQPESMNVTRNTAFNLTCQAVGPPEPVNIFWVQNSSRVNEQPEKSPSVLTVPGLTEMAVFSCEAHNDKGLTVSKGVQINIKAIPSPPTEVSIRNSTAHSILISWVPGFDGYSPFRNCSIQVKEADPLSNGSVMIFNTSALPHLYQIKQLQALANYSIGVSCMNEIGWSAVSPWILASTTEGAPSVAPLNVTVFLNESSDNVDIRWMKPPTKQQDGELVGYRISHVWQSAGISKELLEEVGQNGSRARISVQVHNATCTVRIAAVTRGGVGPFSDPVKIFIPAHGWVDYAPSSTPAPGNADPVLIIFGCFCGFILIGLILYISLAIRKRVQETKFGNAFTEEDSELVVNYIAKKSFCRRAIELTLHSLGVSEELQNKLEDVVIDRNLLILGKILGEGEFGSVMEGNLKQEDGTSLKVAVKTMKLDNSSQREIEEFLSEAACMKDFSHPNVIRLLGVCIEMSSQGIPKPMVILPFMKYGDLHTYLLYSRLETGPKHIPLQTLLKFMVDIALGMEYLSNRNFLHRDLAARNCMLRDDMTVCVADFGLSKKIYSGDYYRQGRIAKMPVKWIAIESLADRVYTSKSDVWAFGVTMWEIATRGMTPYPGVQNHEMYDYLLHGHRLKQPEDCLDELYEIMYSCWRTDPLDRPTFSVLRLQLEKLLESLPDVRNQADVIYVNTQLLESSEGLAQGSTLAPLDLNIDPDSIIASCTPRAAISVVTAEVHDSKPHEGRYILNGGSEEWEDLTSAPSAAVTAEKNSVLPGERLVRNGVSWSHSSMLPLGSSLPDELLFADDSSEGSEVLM
Nature of the assay: Inhibition of Mer (unknown origin) by cell free assay.

A further assay relates to BaF3. The experiment in a line: Ratio of IC50 for Mer in mouse BaF3 cells to IC50 for Axl in mouse BaF3 cells. The assay is classed as cell-based.

As to `CC(C)n1cc(C(=O)Nc2ccc(Oc3ncnc4c3CN(C)CC4)c(F)c2)c(=O)n(-c2ccc(F)cc2)c1=O`, the IC50 – broadly, the point on the concentration scale where inhibition reaches its midpoint – was 0.81 µM in assay [1], 0.064 µM in assay [2], 0.15 µM in assay [3] and 0.27 µM in assay [4]. The Ratio IC50 in the assay filed under Homo sapiens and in the assay on BaF3 was 4.2 in each case.

As to `CC(C)n1cc(C(=O)Nc2ccc(Oc3ncnc4c3CN(CC3CCOCC3)C4)c(F)c2)c(=O)n(-c2ccc(F)cc2)c1=O`, the IC50 in assay [1] was found to be 0.24 µM; in assay [2], 0.0086 µM; in assay [3] it was 0.093 µM; in assay [4] it was 0.034 µM. For the same compound, the Ratio IC50 in the assay listed under Homo sapiens worked out at 4; with BaF3, 2.6.

As to `CN1CCC(CN2CCc3c(ncnc3Oc3ccc(NC(=O)c4cn(C5CCCC5)c(=O)n(-c5ccc(F)cc5)c4=O)cc3F)C2)CC1`, the IC50 in assay [1] is 0.034 µM; in assay [2] it was 0.0027 µM; in assay [3] it was 0.0079 µM; in assay [4] it was 0.051 µM. Besides, the Ratio IC50 in the assay filed under Homo sapiens worked out at 19; with BaF3, 4.3.

`CC(C)n1cc(C(=O)Nc2ccc(Oc3ncnc4c3CCN(CC(=O)N3CCN(C)CC3)C4)c(F)c2)c(=O)n(-c2ccc(F)cc2)c1=O`: the IC50 in assay [1] was 0.37 µM; in assay [2], 0.0095 µM; in assay [3], 0.078 µM; in assay [4], 0.21 µM. Further, the Ratio IC50 in the assay listed under Homo sapiens turned out to be 22; in the assay on BaF3, 4.7.

As for `CC(C)n1cc(C(=O)Nc2ccc(Oc3ncnc4c3CCN(C(=O)CN3CCOCC3)C4)c(F)c2)c(=O)n(-c2ccc(F)cc2)c1=O`, the IC50 worked out at 0.91 µM in assay [1], 0.017 µM in assay [2], 0.13 µM in assay [3] and 0.17 µM in assay [4]. In addition, the results for the Ratio IC50 in the assay listed under Homo sapiens and in the assay on BaF3 were 10 and 7, respectively.

Take `CN1CCC(CN2CCc3c(ncnc3Oc3ccc(NC(=O)c4cn(CC5CC5)c(=O)n(-c5ccc(F)cc5)c4=O)cc3F)C2)CC1`: the IC50 in assay [1] came out at 0.051 µM; in assay [2], 0.0019 µM; in assay [3] it was 0.0084 µM; in assay [4], 0.062 µM. In addition, the Ratio IC50 in the assay listed under Homo sapiens came to 33; with BaF3 it was 6.1.

With `CC(C)n1cc(C(=O)Nc2ccc(Oc3ncnc4c3CCN(CC(=O)N3CCC3)C4)c(F)c2)c(=O)n(-c2ccc(F)cc2)c1=O`, the IC50 in assay [1] is 0.37 µM; in assay [2] it was 0.014 µM; in assay [3] it was 0.066 µM; in assay [4] it was 0.2 µM. Moreover, the figures for the Ratio IC50 in the assay listed under Homo sapiens and in the assay with BaF3 were 14 and 5.6, respectively.

Regarding `CC(C)n1cc(C(=O)Nc2ccc(Oc3ncnc4c3CC(=O)N4)c(F)c2)c(=O)n(-c2ccc(F)cc2)c1=O`, the IC50 in assay [1] was 0.28 µM; in assay [2], 0.026 µM; in assay [3], 0.084 µM; in assay [4] it was 0.076 µM. In addition, the Ratio IC50 in the assay filed under Homo sapiens and in the assay with BaF3 was 2.9 throughout.

`CC(C)n1cc(C(=O)Nc2ccc(Oc3ncnc4c3CN(C(=O)CN3CCN(C)CC3)C4)c(F)c2)c(=O)n(-c2ccc(F)cc2)c1=O`: the IC50 in assay [1] came to 0.11 µM; in assay [2], 0.006 µM; in assay [3] it was 0.042 µM; in assay [4], 0.033 µM. The Ratio IC50 in the assay listed under Homo sapiens came to 5.5; with BaF3, 2.6.

For the compound `CN1CCC(CN2CCc3c(ncnc3Oc3ccc(NC(=O)c4cn(C5CC5)c(=O)n(-c5ccc(F)cc5)c4=O)cc3F)C2)CC1`, the IC50 in assay [1] was determined as 4.11 µM; in assay [2] it was 0.032 µM; in assay [3] it was 0.77 µM; in assay [4] it was 0.83 µM. The results for the Ratio IC50 in the assay filed under Homo sapiens and in the assay on BaF3 were 26 and 5.3, respectively.

With `CC(C)Cn1cc(C(=O)Nc2ccc(Oc3ncnc4c3CCN(CC3CCN(C)CC3)C4)c(F)c2)c(=O)n(-c2ccc(F)cc2)c1=O`, the IC50 in assay [1] worked out at 0.11 µM; in assay [2], 0.0055 µM; in assay [3], 0.046 µM; in assay [4], 0.11 µM. Besides, the values for the Ratio IC50 in the assay listed under Homo sapiens and in the assay on BaF3 were 20 and 2.4, respectively.

Take `CN1CCC(CN2CCc3c(ncnc3Oc3ccc(NC(=O)c4cn(CCF)c(=O)n(-c5ccc(F)cc5)c4=O)cc3F)C2)CC1`: the IC50 in assay [1] was 0.13 µM; in assay [2] it was 0.0085 µM; in assay [3] it was 0.049 µM; in assay [4], 0.15 µM. Also, the results for the Ratio IC50 in the assay filed under Homo sapiens and in the assay with BaF3 were 18 and 2.7, respectively.
